# Non-standard residues stand in square brackets, D forms with d.
# Biological target: T1, plasmin (Homo sapiens, UniProt P00747)
# T1 construct: The amino-terminal heavy chain of PL consists of five kringle domains; The C-terminal light chain of plasmin is a typical serine protease (SP); purchased Chromogenix (Milano, Italy)
# Assay: Amidolytic activity of plasmin (substrate S-2251)
# Type: biochemical
# Settings: amidolytic activity, S-2251, tris buffer pH 7.4
# Experimental: (§1) Determination of amidolytic activity was performed as previously described by (Okada et al. [1988]). Buffer and 0.1 ml of enzyme solution was added to 0.2 ml of examined compound dissolved in 0.15 M NaCl (1–15) (as control 0.15 M NaCl). The buffer and the enzyme solution included: • tris buffer—0.6 ml (pH 8.8), enzyme: urokinase (50 units/ml), synthetic substrate: S-2444 (0.1 ml, 3 mM); • tris buffer—0.5 ml (pH 8.4), enzyme: thrombin (1 units/ml), synthetic substrate: S-2238 (0.2 ml, 0.75 mM); • tris buffer—0.5 ml (pH 7.4), enzyme: plasmin (0.4 units/ml), synthetic substrate: S-2251 (0.2 ml, 3 mM); • […]—0.5 ml (pH 7.5), enzyme: trypsin (0.4 units/ml), synthetic substrate: Bzl-L-Arg–pNA.HCl (0.2 ml, 8 mM); • tris buffer—0.6 ml (pH 9.0), enzyme: kallikrein (3 units/ml), synthetic substrate: S-2266 (0.1 ml, 75 mM); • tris buffer—0.6 ml (pH 8.4), enzyme: t-PA ([…]), synthetic substrate: S-2288 (0.1 ml, 10 mM).
# (§2) IC50 values were determined (IC50, Inhibitor Concentration, the concentration at which enzyme activity is inhibited by 50 %). Our results were compared with the 6-aminohexanoic acid.
# T1 sequence (P00747 97-580 limits assumed): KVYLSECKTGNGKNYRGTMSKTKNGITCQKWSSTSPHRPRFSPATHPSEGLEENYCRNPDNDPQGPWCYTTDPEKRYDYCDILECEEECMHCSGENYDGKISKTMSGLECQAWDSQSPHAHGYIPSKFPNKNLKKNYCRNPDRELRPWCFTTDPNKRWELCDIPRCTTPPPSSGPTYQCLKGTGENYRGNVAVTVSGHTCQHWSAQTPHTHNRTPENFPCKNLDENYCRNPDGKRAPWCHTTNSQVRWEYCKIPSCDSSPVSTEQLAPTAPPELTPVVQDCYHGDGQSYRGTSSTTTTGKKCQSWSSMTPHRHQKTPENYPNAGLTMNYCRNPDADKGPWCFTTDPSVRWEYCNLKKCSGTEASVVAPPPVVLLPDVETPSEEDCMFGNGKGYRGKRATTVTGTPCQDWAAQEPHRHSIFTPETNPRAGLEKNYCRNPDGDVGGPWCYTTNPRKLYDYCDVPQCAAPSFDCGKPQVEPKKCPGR
# T1 sequence (P00747 581-810 limits assumed): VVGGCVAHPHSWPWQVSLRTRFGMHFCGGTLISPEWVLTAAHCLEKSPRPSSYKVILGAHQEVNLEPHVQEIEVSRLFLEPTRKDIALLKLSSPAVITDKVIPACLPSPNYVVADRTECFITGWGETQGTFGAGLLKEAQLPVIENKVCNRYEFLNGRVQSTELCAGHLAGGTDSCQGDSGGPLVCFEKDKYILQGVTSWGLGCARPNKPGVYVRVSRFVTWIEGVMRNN
row,IC50,Molecule
1,1.11 ± 0.09 mM,"C[C@@H](N)C(=O)N[C@@H](Cc1ccccc1)C(=O)N[C@@H](CCCCN)C(=O)NCCCCCC(=O)NCCCCCN [Compound 12, H–D-Ala–Phe–Lys–EACA–NH–(CH2)5–NH2]"
2,1.4 ± 0.11 mM,"C[C@H](N)C(=O)N[C@@H](Cc1ccccc1)C(=O)N[C@@H](CCCCN)C(=O)NCCCCCC(=O)NCCCCCN [Compound 13, H–Ala–Phe–Lys–EACA–NH–(CH2)5–NH2]"
3,4.77 ± 0.38 mM,"C[C@@H](N)C(=O)N[C@@H](Cc1ccccc1)C(=O)NCCCCCC(=O)NCCCCCN [Compound 14, H–D-Ala–Phe–EACA–NH–(CH2)5–NH2]"
4,> 20 mM,"C[C@H](N)C(=O)N[C@@H](Cc1ccccc1)C(=O)NCCCCCC(=O)NCCCCCN [Compound 15, H–Ala–Phe–EACA–NH–(CH2)5–NH2]"

# Same assay, conditions: maximum concentration 20 mM
row,effect on amidolytic activity of plasmin (in words),Molecule
1,No effect,"NCCCCCC(=O)O [EACA, 6-aminohexanoic acid]"

# Biological target: T2, thrombin (Bos taurus, UniProt P00735)
# T2 construct: purchased Lubelska Wytwórnia Szczepionek (Lublin, Poland)
# Assay: Amidolytic activity of thrombin (substrate S-2238)
# Type: biochemical
# Settings: amidolytic activity, S-2238, tris buffer pH 8.4
# Experimental: as §1, §2
row,IC50,Molecule
1,> 20 mM,"C[C@@H](N)C(=O)N[C@@H](Cc1ccccc1)C(=O)N[C@@H](CCCCN)C(=O)NCCCCCC(=O)NCCCCCN [Compound 12, H–D-Ala–Phe–Lys–EACA–NH–(CH2)5–NH2]"
2,> 20 mM,"C[C@H](N)C(=O)N[C@@H](Cc1ccccc1)C(=O)N[C@@H](CCCCN)C(=O)NCCCCCC(=O)NCCCCCN [Compound 13, H–Ala–Phe–Lys–EACA–NH–(CH2)5–NH2]"
3,> 20 mM,"C[C@@H](N)C(=O)N[C@@H](Cc1ccccc1)C(=O)NCCCCCC(=O)NCCCCCN [Compound 14, H–D-Ala–Phe–EACA–NH–(CH2)5–NH2]"
4,> 20 mM,"C[C@H](N)C(=O)N[C@@H](Cc1ccccc1)C(=O)NCCCCCC(=O)NCCCCCN [Compound 15, H–Ala–Phe–EACA–NH–(CH2)5–NH2]"

# Same assay, conditions: maximum concentration 20 mM
row,effect on amidolytic activity of thrombin (in words),Molecule
1,No effect,"NCCCCCC(=O)O [EACA, 6-aminohexanoic acid]"

# Biological target: T3, tPA (Homo sapiens, UniProt P00750)
# T3 construct: purchased Boehringer Ingelheim GmbH (Ingelheim, Germany)
# Assay: Amidolytic activity of t-PA (substrate S-2288)
# Type: biochemical
# Settings: amidolytic activity, S-2288, tris buffer pH 8.4
# Experimental: as §1, §2
# T3 sequence (P00750 36-562): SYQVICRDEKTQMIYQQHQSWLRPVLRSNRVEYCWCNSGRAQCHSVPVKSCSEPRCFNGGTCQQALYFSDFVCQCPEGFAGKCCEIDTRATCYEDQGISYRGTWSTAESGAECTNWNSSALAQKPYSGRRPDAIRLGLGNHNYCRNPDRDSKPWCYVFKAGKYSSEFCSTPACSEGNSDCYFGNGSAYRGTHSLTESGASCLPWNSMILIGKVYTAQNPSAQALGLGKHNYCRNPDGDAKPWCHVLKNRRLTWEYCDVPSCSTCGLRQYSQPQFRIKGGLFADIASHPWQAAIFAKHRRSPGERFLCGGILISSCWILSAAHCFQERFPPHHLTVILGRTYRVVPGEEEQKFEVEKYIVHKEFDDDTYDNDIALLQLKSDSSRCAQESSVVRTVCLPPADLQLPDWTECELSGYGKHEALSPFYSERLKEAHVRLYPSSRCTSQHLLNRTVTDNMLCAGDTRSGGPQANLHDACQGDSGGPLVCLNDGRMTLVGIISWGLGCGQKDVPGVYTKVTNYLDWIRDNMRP
row,IC50,Molecule
1,> 20 mM,"C[C@@H](N)C(=O)N[C@@H](Cc1ccccc1)C(=O)N[C@@H](CCCCN)C(=O)NCCCCCC(=O)NCCCCCN [Compound 12, H–D-Ala–Phe–Lys–EACA–NH–(CH2)5–NH2]"
2,> 20 mM,"C[C@H](N)C(=O)N[C@@H](Cc1ccccc1)C(=O)N[C@@H](CCCCN)C(=O)NCCCCCC(=O)NCCCCCN [Compound 13, H–Ala–Phe–Lys–EACA–NH–(CH2)5–NH2]"
3,> 20 mM,"C[C@@H](N)C(=O)N[C@@H](Cc1ccccc1)C(=O)NCCCCCC(=O)NCCCCCN [Compound 14, H–D-Ala–Phe–EACA–NH–(CH2)5–NH2]"
4,> 20 mM,"C[C@H](N)C(=O)N[C@@H](Cc1ccccc1)C(=O)NCCCCCC(=O)NCCCCCN [Compound 15, H–Ala–Phe–EACA–NH–(CH2)5–NH2]"

# Same assay, conditions: maximum concentration 20 mM
row,effect on amidolytic activity of tPA (in words),Molecule
1,No effect,"NCCCCCC(=O)O [EACA, 6-aminohexanoic acid]"

# Biological target: T4, uPA (Homo sapiens, UniProt P00749)
# T4 construct: purchased Sigma (Schnelldorf, Germany)
# Assay: Amidolytic activity of urokinase (substrate S-2444)
# Type: biochemical
# Settings: amidolytic activity, S-2444, tris buffer pH 8.8
# Experimental: as §1, §2
row,IC50,Molecule
1,> 20 mM,"C[C@@H](N)C(=O)N[C@@H](Cc1ccccc1)C(=O)N[C@@H](CCCCN)C(=O)NCCCCCC(=O)NCCCCCN [Compound 12, H–D-Ala–Phe–Lys–EACA–NH–(CH2)5–NH2]"
2,> 20 mM,"C[C@H](N)C(=O)N[C@@H](Cc1ccccc1)C(=O)N[C@@H](CCCCN)C(=O)NCCCCCC(=O)NCCCCCN [Compound 13, H–Ala–Phe–Lys–EACA–NH–(CH2)5–NH2]"
3,> 20 mM,"C[C@@H](N)C(=O)N[C@@H](Cc1ccccc1)C(=O)NCCCCCC(=O)NCCCCCN [Compound 14, H–D-Ala–Phe–EACA–NH–(CH2)5–NH2]"
4,> 20 mM,"C[C@H](N)C(=O)N[C@@H](Cc1ccccc1)C(=O)NCCCCCC(=O)NCCCCCN [Compound 15, H–Ala–Phe–EACA–NH–(CH2)5–NH2]"

# Same assay, conditions: maximum concentration 20 mM
row,effect on amidolytic activity of uPA (in words),Molecule
1,No effect,"NCCCCCC(=O)O [EACA, 6-aminohexanoic acid]"

# Test system: trypsin
# Assay: Amidolytic activity of trypsin (substrate Bzl-L-Arg-pNA)
# Type: biochemical
# Settings: amidolytic activity, Bzl-L-Arg-pNA, borane buffer pH 7.5
# Experimental: as §1, §2
row,IC50,Molecule
1,> 20 mM,"C[C@@H](N)C(=O)N[C@@H](Cc1ccccc1)C(=O)N[C@@H](CCCCN)C(=O)NCCCCCC(=O)NCCCCCN [Compound 12, H–D-Ala–Phe–Lys–EACA–NH–(CH2)5–NH2]"

# Same assay, conditions: maximum concentration 20 mM
row,Molecule,effect on amidolytic activity of trypsin (in words)
1,"NCCCCCC(=O)O [EACA, 6-aminohexanoic acid]",No effect

# Test system: kallikrein
# Assay: Amidolytic activity of kallikrein (substrate S-2266)
# Type: biochemical
# Settings: maximum concentration 20 mM, S-2266, pH 9.0
# Experimental: as §1, §2
row,Molecule,influence on the enzymatic activity of kallikrein
1,"NCCCCCC(=O)O [EACA, 6-aminohexanoic acid]",No effect

# Test system: fibrinolysis in whole blood
# Assay: Thromboelastometric (ROTEM) analysis of clot formation and fibrinolysis in whole blood
# Set-up: species or system human
# Settings: human whole blood; control 174 s
# Experimental: Five healthy volunteers, men (age range: 25–34 years)) with normal blood cell counts were entered into the study. Healthy volunteers had not taken medication known to affect platelet function and/or coagulation for at least 10 days before blood sampling.
# Blood was stored at room temperature for 30 min after venipuncture and then was evaluated by thromboelastometric analyses.
# Thromboelastometric measurements were performed using ROTEM system (Tem International GmbH, Manheim, Germany). […] We measured the parameters characterized kinetic of clot formation (clotting time, alpha angle), clot strength (maximal clot firmness; MCF), and fibrinolysis (percentage reduction of MCF, clot lysis time).
row,Molecule,"clotting time (CT, coagulation time)"
1,"NCCCCCC(=O)O [EACA, 6-aminohexanoic acid]",137 s
2,"NCCCCCC(N)=O [H–EACA–NH2, reference compound]",117 s

# Same assay, conditions: human whole blood; whole blood alone about 61 %
row,Molecule,lysis of the clot in 45 min (from LI45)
1,"NCCCCCC(=O)O [EACA, 6-aminohexanoic acid]",1%
2,"NCCCCCC(N)=O [H–EACA–NH2, reference compound]",20%

# Same assay, conditions: recalcified human whole blood, 140 ng/ml TF, 125 ng/ml tPA
Molecule,LOT lysis onset time (clot amplitude reduced by 15 %),LT lysis time (clot reduced/lysed by 90 %)
"NCCCCCC(=O)O [EACA, 6-aminohexanoic acid]",≥4084 s,≥168 min
"NCCCCCC(N)=O [H–EACA–NH2, reference compound]",2488 ± 172 s,71 ± 5 min

# Same assay, conditions: recalcified human whole blood, TF + tPA, 30 min
row,Molecule,"LI30 lysis index, amplitude of clot after 30 min"
1,"NCCCCCC(=O)O [EACA, 6-aminohexanoic acid]",100%
2,"NCCCCCC(N)=O [H–EACA–NH2, reference compound]",96%

# Same assay, conditions: recalcified human whole blood, TF + tPA, 45 min
row,Molecule,"LI45 lysis index, amplitude of clot after 45 min"
1,"NCCCCCC(=O)O [EACA, 6-aminohexanoic acid]",98%
2,"NCCCCCC(N)=O [H–EACA–NH2, reference compound]",80%

# Same assay, conditions: recalcified human whole blood, TF + tPA, 60 min
row,Molecule,"LI60 lysis index, amplitude of clot after 60 min"
1,"NCCCCCC(=O)O [EACA, 6-aminohexanoic acid]",92%
2,"NCCCCCC(N)=O [H–EACA–NH2, reference compound]",32%

# Test system: MCF-7 cells
# Assay: Cytotoxicity assay (method of Plumb et al.)
# Type: cell-based
# Settings: 10, 100, 250, 500 and 1000 μM
# Experimental: (§3) All studies were performed on MCF-7, MDA-MB-231 and DLD cells lines were purchased from American Type Culture Collection (Rockville, MD). The cells were maintained in DMEM supplemented with 5 % fetal bovine serum (FBS), […] glutamine, 50 U/ml penicillin, […] streptomycin at 37 °C in a 5 % CO2 incubator.
# (§4) The toxicity of the evaluated peptides was determined by the method of Plumb et al. ([1989]) in 10, 100, 250, 500 and 1000 μM concentrations. MCF-7, MDA-MB-231 and DLD cells were maintained as described above. The detailed description of the method is given by (Markowska et al. [2013]).
row,Molecule,cytotoxic effect / viability of MCF-7 cells
1,"NCCCCCC(=O)O [EACA, 6-aminohexanoic acid]",did not display cytotoxicity

# Test system: MDA-MB-231 cells
# Assay: Cytotoxicity assay (method of Plumb et al.)
# Type: cell-based
# Settings: 10, 100, 250, 500 and 1000 μM
# Experimental: as §3, §4
row,Molecule,cytotoxic effect / viability of MDA-MB-231 cells
1,"NCCCCCC(=O)O [EACA, 6-aminohexanoic acid]",did not display cytotoxicity

# Test system: colon cancer cell line DLD-1
# Assay: Cytotoxicity assay (method of Plumb et al.)
# Type: cell-based
# Settings: 10, 100, 250, 500 and 1000 μM
# Experimental: as §3, §4
row,Molecule,cytotoxic effect / viability of DLD-1 cells
1,"NCCCCCC(=O)O [EACA, 6-aminohexanoic acid]",did not display cytotoxicity

# Test system: fibroblast cells
# Assay: Cytotoxicity assay, normal cells
# Type: cell-based
# Settings: not given
row,Molecule,cytotoxic effect / viability of fibroblast cells
1,"NCCCCCC(=O)O [EACA, 6-aminohexanoic acid]",did not display cytotoxicity

# Biological target: T1, plasmin
# Assay: not given
# Settings: ref Markowska et al. ([2007]); cited from earlier work
row,Molecule,plasmin inhibitory activity
1,H-[dA]-Phe-Lys-NH2,no activity

# Same assay, conditions: ref Midura-Nowaczek et al. [1990]; cited from earlier work
row,Molecule,plasmin inhibitory activity
1,H–Ala–Phe–Lys–NH–(CH2)5–NH2,no plasmin inhibitory activity
2,H–D-Ala–Phe–Lys–NH–(CH2)5–NH2,no activity

# Same assay, conditions: ref Midura-Nowaczek et al. [2003]; cited from earlier work
row,Molecule,inhibitory effect on plasmin activity
1,H-[dA]-Phe-Lys-NH2,completely lacked this effect
2,H–Ala–Phe–Lys–NH2,completely lacked this effect

# Same assay, conditions: ref Midura-Nowaczek et al. [2008]; cited from earlier work
row,Molecule,IC50
1,CC(=O)N[C@@H](CCCCN)C(=O)NCCCCCN [Ac–Lys–NH–(CH2)5–NH2],8 mM

# Source: PMC5401710, “Peptides with 6-Aminohexanoic Acid: Synthesis and Evaluation as Plasmin Inhibitors” (International Journal of Peptide Research and Therapeutics, 2016)
